Data on 17 compounds can be found in patent US20230219956A1 (BETTA PHARMACEUTICALS CO.,LTD, priority 2019, published 2023).

SMILES strings stand for the structures.

A word on the IC50: it is the concentration that inhibits the measured activity by half. Read a low IC50 as greater potency in that assay. What is called Papp A→B is how fast a substance crosses the layer from the apical side. Low values mean poor permeation, high ones ready permeation. What is called Papp B→A is how fast a substance crosses the layer from the basolateral side.

One series has as its system CALU-1 cells. Kind of series: Cell proliferation assay, CALU-1 cells (Cell-titer Glo). Type of series: cell-based. The conditions noted are these: Homo sapiens, 120 h incubation. The protocol: The CALU-1 cells were spread on a 96-well ultra-low adsorption plate with 1000 cells and 190 μL/well. After incubating overnight, compound solutions of gradient concentration was prepared, and added 10 μL of DMSO solution of the test compound of each concentration to the cells of each well. The final concentration of the compound is 30000, 10000, 3333.3, 1111.1, 370.4, 123.5, 41.2, 13.7, 4.6, 0 nM (the final concentration of DMSO is 0.25%). Incubated for 120 h at 37° C. and 5% CO2. 60 μL of Cell-titer Glo working solution was added to each well, shaked and mixed, and incubated at room temperature for 10 minutes. The multi-functional microplate reader read the luminescence value, and converted the luminescence value reading into inhibition percentage.
Inhibition percentage=(maximum value−reading)/(maximum value−minimum value)*100.
The “maximum value” was the DMSO control, the “minimum value” indicates the cell-free control group.
Graphpad Prism software was used to perform curve fitting and obtain IC50 value.
The compounds of the examples have good inhibition on CALU-1 cells, and their activity is better than that of ARS-1620. Refer to Table 2 for the IC50 data of some compounds in the examples inhibiting CALU-1 cells.

For a further series, the system named is MIA-PACA-2 cells. Kind of series: Cell proliferation assay, MIA-PACA-2 cells (Cell-titer Glo). It is filed as cell-based. The conditions noted are these: Homo sapiens, 96 h incubation. In short, it runs like this: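 MIA-PACA-2 cells, 600 per well in ultra-low-attachment plates, exposed 96 h at 37 °C to compound at 0.025–10000 nM final (0.25% DMSO). Viability by CellTiter-Glo luminescence; inhibition normalised to DMSO and cell-free controls, IC50 from curve fit.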

Series [1] is described as follows: Permeability assay, Caco-2 monolayer cell model. The conditions noted are these: human, Caco-2, compound 5 μM, Verapamil 0 μM; for efflux ratio at 120 min, 5 μM: read-out: RE (Efflux Ratio). Type of series: in vitro ADME. The protocol: The Caco-2 monolayer cell model was used to determine the bidirectional permeability and efflux rate of the example compounds and the comparative compounds. In the experiment, 50 μL of 6.86×10^5 cells/mL Caco-2 cells (passage 45) were seeded into 96-well cell culture plates, and cultured continuously for 14-18 days for transport experiments. The corresponding compound was administered bidirectionally with or without verapamil (P glycoprotein (P-gp) inhibitor), at a concentration of 5 μM. At 37° C., after incubating with shaking at 150 rpm for 120 minutes, the top and basal samples were collected, and the content of each compound in the samples was determined by liquid chromatography tandem mass spectrometry (LC/MS/MS).
Refer to the Table 4 for permeability data of some compounds in the examples.
A general note: Passage across Caco-2 layers is used to estimate intestinal permeability.

For a further series, the system named is H358 cells. Kind of series: Cell proliferation assay, H358 cells (Cell-titer Glo). It is filed as cell-based. The conditions noted are these: Homo sapiens, NCI-H358, 96 h incubation. The essentials: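 H358 cells, 2000 per well in ultra-low-attachment plates, treated after overnight culture with compound at 10000 to 1.5 nM plus 0 (0.25% DMSO final) for 96 h at 37 °C, 5% CO2. Cell-titer Glo luminescence, normalised to DMSO and cell-free controls; IC50 from curve fit.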

For the compound `C=CC(=O)N1CCN(c2ncnc3c(F)c(-c4c(O)cccc4F)c(Cl)cc23)CC1` [ARS-1620, reference compound], the values for the IC50 with CALU-1 cells and with MIA-PACA-2 cells were 245 nM and 284 nM, respectively.

For `C=CC(=O)N1CC2(CCN(c3nc(C4CCN(C)CC4)nc4c(OCC(F)(F)F)c(-c5c(C)ccc6[nH]ncc56)c(C=C)cc34)CC2)C1` [Compound 1, 1-(7-(7-(5-methyl-1H-indazol-4-yl)-2-(1 methylpiperidin-4-yl)-8-(2,2,2-trifluoroethoxy)-6-vinylquinazolin-4-yl)-2,7-diazaspiro[3.5]nonan-2-yl)prop-2-en-1-one], the IC50 in the series with CALU-1 cells came out at 2.7 nM. Besides, in series [1], the apical-to-basolateral permeability (Papp A→B) at 120 min, 5 μM worked out at 0.51 ×10⁻⁶ cm/s; the Papp B→A at 120 min, 5 μM came out at 7.18 ×10⁻⁶ cm/s; the efflux ratio at 120 min, 5 μM was 14.2.

Turning to `C=CC(=O)N1CC2(CCN(c3nc(C4CCN(C)CC4)nc4c(OCC(F)(F)F)c(-c5c(C)ccc6[nH]ncc56)c(CC)cc34)CC2)C1` [Compound 4, 1-(7-(6-ethyl-7-(5-methyl-1H-indazol-4-yl)-2-(1-methylpiperidin-4-yl)-8-(2,2,2-trifluoroethoxy)quinazolin-4-yl)-2,7-diazaspiro[3.5]nonan-2-yl)prop-2-en-1-one], in the series on CALU-1 cells, the midpoint of inhibition, the IC50, lay at 2.9 nM. Moreover, in series [1], the Papp A→B at 120 min, 5 μM is 0.21 ×10⁻⁶ cm/s; the Papp B→A at 120 min, 5 μM is 9.64 ×10⁻⁶ cm/s; the efflux ratio at 120 min, 5 μM was determined as 46.5.

`C=CC(=O)N1CC2(CCN(c3nc(C4CCN(C)CC4)nc4c(F)c(-c5c(C)ccc6[nH]ncc56)c(C=C)cc34)CC2)C1` [Compound 5, 1-(7-(8-fluoro-7-(5-methyl-1H-indazol-4-yl)-2-(1-methylpiperidin-4-yl)-synthesis of 6-vinylquinazolin-4-yl)-2,7-diazaspiro[3.5]nonan-2-yl)prop-2-en-1-one] had an IC50 in the series with CALU-1 cells of 103 nM.

In the series on CALU-1 cells, `C=CC(=O)N1CC2(CCN(c3nc(C4CCOCC4)nc4c(OCC(F)(F)F)c(-c5c(C)ccc6[nH]ncc56)c(C=C)cc34)CC2)C1` [Compound 6, 1-(7-(7-(5-methyl-1H-indazol-4-yl)-2-(tetrahydro-2H-pyran-4-yl)-8-(2,2,2-trifluoroethoxy)-6-vinylquinazolin-4-yl)-2,7-diazaspiro[3.5]nonan-2-yl)prop-2-en-1-one] gave an IC50 of 45.7 nM.

In the series with CALU-1 cells, `C=CC(=O)N1CC2(CCN(c3nc(C4CCN(C)C4)nc4c(OCC(F)(F)F)c(-c5c(C)ccc6[nH]ncc56)c(C=C)cc34)CC2)C1` (stereo not drawn) [Compound 8] showed an IC50 of 4.6 nM.

`C=CC(=O)N1CC2(CCN(c3nc(OC4CCN(C5CCOCC5)CC4)nc4c(OCC(F)(F)F)c(-c5c(C)ccc6[nH]ncc56)c(C=C)cc34)CC2)C1` [Compound D1, reference compound]: in series [1], the Papp A→B at 120 min, 5 μM amounted to 0.06 ×10⁻⁶ cm/s; the Papp B→A at 120 min, 5 μM was 6.75 ×10⁻⁶ cm/s; the efflux ratio at 120 min, 5 μM was determined as 113.

`C=CC(=O)N1CC2(CCN(c3nc(C4CCN(C(C)=O)CC4)nc4c(OCC(F)(F)F)c(-c5c(C)ccc6[nH]ncc56)c(C=C)cc34)CC2)C1` [Example 14, 1-(7-(2-(1-acetylpiperidin-4-yl)-7-(5-methyl-1H-indazol-4-yl)-8-(2,2,2-trifluoroethoxy)-6-vinylquinazolin-4-yl)-2,7-diazaspiro[3.5]nonan-2-yl)prop-2-en-1-one] returned an IC50 with MIA-PACA-2 cells of 40.6 nM. Besides, in the series with H358 cells, the midpoint of inhibition, the IC50, lay at 6.4 nM. Moreover, in series [1], the Papp A→B at 120 min, 5 μM worked out at 1.33 ×10⁻⁶ cm/s; the Papp B→A at 120 min, 5 μM is 5.82 ×10⁻⁶ cm/s; the efflux ratio at 120 min, 5 μM is 4.36.

On to `C=CC(=O)N1CC2(CCN(c3nc(C4CCN(C5CCOCC5)CC4)nc4c(OCC(F)(F)F)c(-c5c(C)ccc6[nH]ncc56)c(C=C)cc34)CC2)C1` [Example 58, 1-(7-(7-(5-methyl-1H-indazole-4-yl)-2-(1-(tetrahydro-2H-pyran-4-yl)piperidin-4-yl)-8-(2,2,2-trifluoroethoxy)-6-vinylquinazolin-4-yl)-2,7-diazspiro [3.5]nonan-2-yl) propyl-2-en-1-one], for which the 50% inhibitory concentration (IC50) with MIA-PACA-2 cells amounted to 2.6 nM. The IC50 with H358 cells was determined as 4.4 nM. Also, in series [1], the Papp A→B at 120 min, 5 μM stood at 0.34 ×10⁻⁶ cm/s; the Papp B→A at 120 min, 5 μM stood at 10.3 ×10⁻⁶ cm/s; the efflux ratio at 120 min, 5 μM stood at 30.6.

With `C=CC(=O)N1CC2(CCN(c3nc(C4CCN(C5CCOC5)CC4)nc4c(OCC(F)(F)F)c(-c5c(C)ccc6[nH]ncc56)c(C=C)cc34)CC2)C1` (stereo not drawn) [Example 79, 1-(7-(7-(5-methyl-1H-indazol-4-yl)-2-(1-(tetrahydrofuran-3-yl)piperidin-4-yl)-8-(2,2,2-trifluoroethoxy)-6-vinylquinazolin-4-yl)-2,7-diazspiro [3.5]nonan-2-yl) propyl-2-en-1-one], the values for the IC50 in the series with MIA-PACA-2 cells and with H358 cells were 3.5 nM and 2.7 nM, respectively.

For the compound `C=CC(=O)N1CC2(CCN(c3nc(C4CCN(C5CC(O)C5)CC4)nc4c(OCC(F)(F)F)c(-c5c(C)ccc6[nH]ncc56)c(C=C)cc34)CC2)C1` (stereo not drawn) [Example 80], the IC50 with MIA-PACA-2 cells was 46.1 nM; in the series on H358 cells, 14.9 nM.

In the case of `C=CC(=O)N1CC2(CCN(c3nc(C4CCN(C5CCN(C(=O)OCC)CC5)CC4)nc4c(OCC(F)(F)F)c(-c5c(C)ccc6[nH]ncc56)c(C=C)cc34)CC2)C1` [Example 82, Ethyl 4-(4-(2-acryloyl-2,7-diazspiro [3.5]nonan-7-yl)-7-(5-methyl-1H-indazole-4-yl)-8-(2,2,2-trifluoroethoxy) 6-vinylquinazolin-2-yl)-[1,4-bipiperidine]-1′-carboxylate], the IC50 in the series on MIA-PACA-2 cells was determined as 12.5 nM; in the series on H358 cells, 7.6 nM.

Take `C=CC(=O)N1CC2(CCN(c3nc(C4CCN(C5CC6CCC(C5)N6C)CC4)nc4c(OCC(F)(F)F)c(-c5c(C)ccc6[nH]ncc56)c(C=C)cc34)CC2)C1` (stereo not drawn) [Example 83, 1-(7-(7-(5-methyl-1H-indazole-4-yl)-2-(1-(8-methyl-8-azabicyclo [3.2.1]cindan-3-yl]piperidin-4-yl)8(2,2,2-trifluoroethoxy)-6-vinylquinazolin-4-yl)-2,7-diazspiro [3.5]nonan-2-yl) propyl-2-en-1-one]: the half-inhibitory concentration (IC50) in the series with MIA-PACA-2 cells is 136 nM; in the series with H358 cells it was 159 nM.

Take `C=Cc1cc2c(N3CCC4(CC3)CN(C(=O)C(=C)F)C4)nc(C3CCN(C)CC3)nc2c(OCC(F)(F)F)c1-c1c(C)ccc2[nH]ncc12` [Example 84, 2-Fluoro-1-(7-(7-(5-methyl-1H-indazol-4-yl)-2-(1-methylpiperidin-4-yl)-8-(2,2,2-trifluoroethoxy)-6-vinylquinazolin-4-yl)-2,7-diazaspiro[3.5]nonan-2-yl)propan-2-en-1-one]: the results for the IC50 with MIA-PACA-2 cells and in the series with H358 cells were 60.3 nM and 16.5 nM, respectively.

For `C=CC(=O)N1CC2(CCN(c3nc(C4CCN(C(=O)OC)CC4)nc4c(OCC(F)F)c(-c5c(C)ccc6[nH]ncc56)c(C=C)cc34)CC2)C1` [Example 85, Methyl 4-(4-(2-acryloyl-2,7-diazazospiro [3.5]nonan-7-yl)-8-(2,2-difluoroethoxy)-7-(5-methyl-1H-indazole-4-yl)-6-vinylquinazolin-2-yl) piperidine-1-carboxylic acid], the IC50 in the series on MIA-PACA-2 cells worked out at 91.7 nM; with H358 cells, 124 nM.

Consider `C=Cc1cc2c(N3CCC4(CC3)CN(C(=O)C(=C)F)C4)nc(C3CCN(CCC#N)CC3)nc2c(OCC(F)(F)F)c1-c1c(C)ccc2[nH]ncc12` [Example 86, 3-(4-(4-(2-(2-Fluoroacryloyl)-2,7-diazspiro [3.5]nonan-7-yl)-7-(5-methyl-1H-indazole-4-yl)-8-(2,2,2-trifluoroethoxy)-6-vinylquinazolin-2-yl)piperidin-1-yl) propionitrile], for which the IC50 in the series on MIA-PACA-2 cells amounted to 208 nM; in the series with H358 cells, 85.8 nM.

Regarding `Cc1ccc2[nH]ncc2c1-c1c(Cl)cc2c(N3CCC4(CC3)CN(C(=O)/C=C/CN(C)C)C4)nc(C3CCN(C)CC3)nc2c1OCC(F)(F)F` [Example 87, (E)-1-(7-(6-chloro-7-(5-methyl-1H-indazol-4-yl)-2-(1-methylpiperidine-4-yl)-8-(2,2,2-trifluoroethoxy)quinazolin-4-yl)-2,7-diazaspiro[3.5]nonan-2-yl)-4-(dimethylamino) but-2-en-1-one], the values for the IC50 with MIA-PACA-2 cells and in the series on H358 cells were 2190 nM and 1940 nM, respectively.
